Assay results published in patent publication US20250059231A1, “Protease inhibitors” (priority 2021, published 2025).
Where a SMILES comes first, the peptide text is derived from it. [ ]: non-standard residue; d: D form. The star is where a group is joined. Palmitoyl = CCCCCCCCCCCCCCCC(=O)*; hLys = NCCCCC[C@H](N)C(=O)O; β3hK = NCCCC[C@H](N)CC(=O)O; N(Me)OMe = CON(C)*

Each molecule was assayed against T1, DENV protease (Dengue virus type 2, UniProt P29990) (assay: biochemical). Details: at 1 μM; read-out: inhibition of DENV.
T1 construct: The virus-encoded dengue protease comprises the amino-terminal 180 amino acids of NS3 (NS3pro) of the polyprotein
T1 sequence (P29990 1398-1437): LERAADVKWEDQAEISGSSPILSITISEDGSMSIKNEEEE
T1 sequence (P29990 1476-1653): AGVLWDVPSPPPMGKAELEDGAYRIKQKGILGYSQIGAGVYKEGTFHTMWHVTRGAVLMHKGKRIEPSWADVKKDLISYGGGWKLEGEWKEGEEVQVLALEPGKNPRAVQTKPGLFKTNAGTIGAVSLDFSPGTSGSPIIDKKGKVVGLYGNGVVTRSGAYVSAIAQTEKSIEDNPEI
Experimental: Dilutions were made starting from 10 mM stock solutions in DMSO and final concentrations were measured in triplicates. The inhibitors were preincubated for 15 min with DENV protease (100 nM) in the assay buffer (50 mM Tris-HCl pH 9.0, ethylene glycol (10% v/v), and 0.0016% Brij 58). The enzymatic reaction was initiated by the addition of the FRET substrate (final concentration 50 μM) to obtain a final assay volume of 100 μL per well. The enzymatic activity was monitored for 15 min and determined as a slope of relative fluorescence units per second (RFU/s) for each concentration. The mean of the triplicates were plotted against the corresponding concentration in CDDVault to determine the IC50-values. Analogous procedures were used to determine the inhibitory potency on WNV (Kühl et al., J. Med. Chem. 2020, 63 (15): 8179-8197) and ZIKA protease (Nitsche et al., ACS Med. Chem. Lett. 2019 Feb. 14; 10 (2): 168-174). For selectivity screening of active candidates, similar biochemical assays with human serine proteases trypsin (Weigel et al., J. Med. Chem. 2015, 58 (19), 7719-7733.) and/or thrombin (Nitsche et al., J. Med. Chem. 2013, 56 (21), 8389-8403) were used.
With `CCCCCCCCCCCCCCCC(=O)N[C@@H](CCCCN)C(=O)N[C@@H](C)C(=O)N[C@@H](C)C(=O)N[C@@H](CCc1c[nH]cn1)C(N)=O` [compound 172] the inhibition at 1 µM was no less than 20%.

Same assay, conditions: at 50 μM; read-out: inhibition of DENV
`CCCCCCCCCCCCCCCC(=O)N[C@@H](CCCCN)C(=O)N1CCC[C@H]1C(=O)N[C@@H](C)C(=O)N[C@@H](CCCCN)c1nnc(C)o1` [compound 1] gave an inhibition at 50 µM of no less than 25%.
`CCCCCCCCCCCCCCCC(=O)N[C@@H](CCCc1c[nH]c(N)n1)C(=O)N[C@@H](CCC(N)=O)C(=O)N[C@@H](Cc1ccccc1)C(N)=O` [compound 56] showed an inhibition at 50 µM of no less than 25%.
With `CCCCCCCCCCCCCCCC(=O)N[C@@H](CCCCN)C(=O)N1CCC[C@H]1C(=O)N[C@@H](C)C(=O)N[C@@H](CCCCN)C(=O)c1ccccc1` [compound 128] the inhibition at 50 µM was no less than 25%.
`CCCCCCCCCCCCCCCC(=O)N[C@@H](CCCCN)CC(=O)N1CCC[C@H]1C(=O)N[C@@H](C)C(=O)N[C@H](CCCCN)C(N)=O` [compound 119] (Palmitoyl-[β3hK]PA[dK]-NH2) was tested, and the inhibition at 50 µM was no less than 25%.
`CCCCCCCCCCCCCCCC(=O)N[C@@H](CCCCCN)C(=O)N1CCC[C@H]1C(=O)N[C@@H](CCCCN)C(N)=O` [compound 121] (Palmitoyl-[hLys]-Pro-Lys-NH2) gave an inhibition at 50 µM of no less than 25%.
For `CCCCCCCCCCCCCCCC(=O)N[C@@H](CCCCN)C(=O)N[C@@H](C)C(=O)N[C@@H](C)C(=O)N[C@@H](CCCCN)C(=O)N(C)C` [compound 187] (Palmitoyl-KAAK-NMe2), the inhibition at 50 µM was no less than 25%.
For `CCCCCCCCCCCCCCCC(=O)N[C@@H](C)CC(=O)N[C@@H](CCCNC(=N)N)C(=O)N[C@@H](CCC(N)=O)CC(=O)N[C@@H](CCCCN)C(N)=O` [compound 72], the inhibition at 50 µM was no less than 25%.
In the case of `CCCCCCCCCCCCCCCC(=O)N[C@@H](CCCCN)C(=O)N[C@@H](C)C(=O)N[C@@H](C)C(=O)N[C@@H](C(N)=O)c1ccc(OCc2ccccc2)cc1` [compound 138], the inhibition at 50 µM is reported as no less than 25%.
For `CCCCCCCCCCCCCCCC(=O)N[C@@H](CCCCN)C(=O)N1CCC[C@H]1C(=O)N[C@@H](Cc1cnc[nH]1)C(=O)N[C@@H](CCCCN)C(N)=O` [compound 12] (Palmitoyl-KPHK-NH2), the inhibition at 50 µM was no less than 25%.
`CCCCCCCCCCCCCCCC(=O)N[C@@H](CCNc1ncc[nH]1)C(=O)N[C@@H](CCC(N)=O)C(=O)N[C@@H](Cc1ccccc1)C(N)=O` [compound 66] was tested, and the inhibition at 50 µM was no less than 25%.
In the case of `CCCCCCCCCCCCCCCC(=O)N[C@@H](CCc1ccncc1)C(=O)N[C@@H](CCC(N)=O)C(=O)N[C@@H](Cc1ccccc1)C(N)=O` [compound 57], the inhibition at 50 µM is reported as no less than 25%.
`CCCCCCCCCCCCCCCC(=O)N[C@@H](CCCCN)C(=O)N[C@@H](C)C(=O)N[C@@H](C)C(=O)N[C@@H](CCc1c[nH]cn1)C(N)=O` [compound 172] showed an inhibition at 50 µM of no less than 25%.
In the case of `CCCCCCCCCCCCCCCC(=O)N[C@@H](CCCCN)C(=O)N[C@@H](C)C(=O)N[C@@H](CCCCN)C(N)=O` [compound 97] (Palmitoyl-Lys-Ala-Lys-NH2), the inhibition at 50 µM is reported as no less than 25%.
With `CCCCCCCCCCCCCCCC(=O)N[C@@H](CCCCN)CCN1CCC[C@H]1CC(=O)N[C@@H](C)C(=O)N[C@@H](Cc1c[nH]c2ccccc12)C(N)=O` [compound 120] the inhibition at 50 µM was no less than 25%.
`CCCCCCCCCCCCCCCC(=O)N[C@@H](Cc1c[nH]cn1)C(=O)N[C@@H](CCC(N)=O)C(=O)N[C@@H](Cc1ccccc1)C(N)=O` [compound 52] (Palmitoyl-His-Gln-Phe-NH2) was tested, and the inhibition at 50 µM was no less than 25%.
`CCCCCCCCCCCCCCCC(=O)N[C@@H](CCCNC(=N)N)C(=O)N[C@@H](CCC(N)=O)C(=O)N[C@@H](CCCCN)C(N)=O` [compound 40] (Palmitoyl-Arg-Gln-Lys-NH2) was tested, and the inhibition at 50 µM was no less than 25%.
Molecule `CCCCCCCCCCCCCCCC(=O)N[C@@H](CCCCN)C(=O)N[C@@H](C)C(=O)N[C@@H](C)C(=O)N[C@@H](CCCCN)C(=O)N(C)OC` [compound 177] (Palmitoyl-KAAK-{N(Me)OMe}) has an inhibition at 50 µM of no less than 25%.
`CCCCCCCCCCCCCCCC(=O)N[C@@H](Cc1cccc(NC(=N)N)c1)C(=O)N[C@@H](CCC(N)=O)C(=O)N[C@@H](Cc1ccccc1)C(N)=O` [compound 67] was tested, and the inhibition at 50 µM was no less than 25%.
`CCCCCCCCCCCCCCCC(=O)N[C@@H](CCCNC(=N)N)C(=O)N[C@@H](CCCNC(=N)N)C(N)=O` [compound 112] (Palmitoyl-Arg-Arg-NH2) showed an inhibition at 50 µM of no less than 25%.
